The text below walks through data of PubChem BioAssay AID328 (DTP/NCI, 2004).

This experiment relates to BDF1 mice, P388 leukemia ip, median survival T/C. Description: NCI In Vivo Anticancer Drug Screen. Data for tumor model P388 Leukemia (intraperitoneal) in B6D2F1 (BDF1) mice. The conditions noted are these: endpoint: median survival time, higher = longer survival. Put shortly: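 Transplantable tumour in mice; compound vs vehicle dosing; survival scored; ratio of treated to control reported.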

Where [1] appears, read: dose: 50.0 mg/kg/injection, schedule: Q01DX009 (ip), vehicle: saline.
The mark [2] stands for this setting: dose: 100.0 mg/kg/injection, schedule: Q01DX009 (ip), vehicle: saline.
Setting [3] is: dose: 100.0 mg/kg/injection, schedule: Q04DX003 (ip), vehicle: saline with Tween-80.
The mark [4] stands for this setting: dose: 200.0 mg/kg/injection, schedule: Q04DX003 (ip), vehicle: saline with Tween-80.
[5] abbreviates: dose: 50.0 mg/kg/injection, schedule: Q04DX003 (ip), vehicle: saline with Tween-80.
Where [6] appears, read: dose: 100.0 mg/kg/injection, schedule: Q01DX009 (ip), vehicle: saline with Tween-80.
The mark [7] stands for this setting: dose: 25.0 mg/kg/injection, schedule: Q01DX009 (ip), vehicle: saline with Tween-80.
The mark [8] stands for this setting: dose: 50.0 mg/kg/injection, schedule: Q01DX009 (ip), vehicle: saline with Tween-80.
Where [9] appears, read: dose: 400.0 mg/kg/injection, schedule: Q04DX003 (ip), vehicle: saline with Tween-80.
The mark [10] stands for this setting: dose: 100.0 mg/kg/injection, schedule: Q04DX003 (ip), vehicle: Klucel (hydroxypropylcellulose) (HPC).
The mark [11] stands for this setting: dose: 200.0 mg/kg/injection, schedule: Q04DX003 (ip), vehicle: Klucel (hydroxypropylcellulose) (HPC).
Where [12] appears, read: dose: 12.5 mg/kg/injection, schedule: Q01DX009 (ip), vehicle: saline with Tween-80.
[13] abbreviates: dose: 11.0 mg/kg/injection, schedule: Q01DX009 (ip), vehicle: saline with Tween-80.
[14] abbreviates: dose: 16.5 mg/kg/injection, schedule: Q01DX009 (ip), vehicle: saline with Tween-80.

Each structure is given as a SMILES string. Where “and” joins values, the source holds several entries; their conditions need not be identical. Identical values can stand only once. Toxic doses and inconclusive results are not listed.

In the case of `[N-]=[N+]=C1C=C(c2ccccc2)N=C1c1ccccc1`, the T/C under setting [1] is 109 % of control and the T/C under setting [2] is 88 % of control.

Take `CC(C)(C)NC(=S)Nc1ccc2c(c1)nc(-c1ccccc1)c1cc(NC(=S)NC(C)(C)C)ccc12`: the T/C is, setting by setting: under setting [3], 111 % of control; under setting [4], 100 % of control.

Turning to `CC1(CNC(=O)C(=O)NCC2(C)CO2)CO1` (stereo not given), the T/C reads like this: under setting [5], 158 % of control; under setting [6], 154 % of control; under setting [3], 191 % of control; (dose: 132.0 mg/kg/injection, schedule: Q04DX003 (ip), vehicle: saline with Tween-80) 208 % of control; under setting [4], 183 % of control; (dose: 300.0 mg/kg/injection, schedule: Q04DX003 (ip), vehicle: saline with Tween-80) 233 % of control.

As for `Cc1cc(=O)oc2cc3oc(N(C)c4ccccc4)nc(=O)c3cc12`, the T/C was 100 % of control (dose: 100.0 mg/kg/injection, schedule: Q04DX002 (ip), vehicle: saline with Tween-80); 92 % of control (dose: 200.0 mg/kg/injection, schedule: Q04DX002 (ip), vehicle: saline with Tween-80); 102 % of control (dose: 400.0 mg/kg/injection, schedule: Q04DX002 (ip), vehicle: saline with Tween-80).

On to `CCOC(=O)CCCN(c1sc(C)c(C)c1C(=O)OCC)S(=O)(=O)c1ccc(C)cc1`, for which the T/C was 104 % of control under setting [7]; 109 % of control under setting [8]; 91 % of control under setting [5]; 104 % of control under setting [6]; 87 % of control under setting [3]; 95 % of control (dose: 200.0 mg/kg/injection, schedule: Q01DX009 (ip), vehicle: saline with Tween-80). For the same molecule, the T/C by setting is: under setting [4], 95 % of control; under setting [9], 87 % of control.

In the case of `CCOC(=O)Cc1csc(NN=C(C)C)n1`, the T/C is 108 % of control under setting [1] and 110 % of control under setting [2].

With `CSc1nccc(=O)n1-c1cccc(C(F)(F)F)c1`, the T/C was 107 % of control under setting [10] and 107 % of control under setting [11].

For the molecule `CCCNC(=O)Nc1ccc(C)cc1C`, the T/C is 100 % of control under setting [3], 95 % of control under setting [4] and 100 % of control under setting [9].

For `COC(=O)C12N=NN(c3ccccc3)C1(C(=O)OC)C1CCC2C1` (stereo not given), the T/C under setting [3] was 100 % of control, the T/C under setting [4] is 100 % of control and the T/C under setting [9] is 91 % of control.

As for `O=[N+]([O-])c1cccc(C=Nc2cccc(C(F)(F)F)c2)c1`, the T/C (dose: 3.0 mg/kg/injection, schedule: Q01DX009 (ip), vehicle: Klucel (hydroxypropylcellulose) (HPC)) was 95 % of control; the T/C (dose: 6.0 mg/kg/injection, schedule: Q01DX009 (ip), vehicle: Klucel (hydroxypropylcellulose) (HPC)) is 95 % of control; the T/C (dose: 12.0 mg/kg/injection, schedule: Q01DX009 (ip), vehicle: Klucel (hydroxypropylcellulose) (HPC)) was 100 % of control; the T/C under setting [10] is 104 % of control; the T/C under setting [11] is 95 % of control; the T/C (dose: 400.0 mg/kg/injection, schedule: Q04DX003 (ip), vehicle: Klucel (hydroxypropylcellulose) (HPC)) is 95 % of control.

For the molecule `CC(C)(C)c1cc(C(C)(C)O)c2c(c1)C(C)(C)OS2(C)Cl` (stereo not given), the T/C reads like this: (dose: 12.5 mg/kg/injection, schedule: Q04DX003 (ip), vehicle: saline with Tween-80) 100 % of control; (dose: 25.0 mg/kg/injection, schedule: Q04DX003 (ip), vehicle: saline with Tween-80) 100 % of control; under setting [5], 96 % of control.

For `Cc1cc(=O)[nH]c2cc(Br)ccc12`, the T/C (dose: 100.0 mg/kg/injection, schedule: Q01DX001 (ip), vehicle: saline with Tween-80) is 104 % of control; the T/C (dose: 200.0 mg/kg/injection, schedule: Q01DX001 (ip), vehicle: saline with Tween-80) is 90 % of control; the T/C (dose: 400.0 mg/kg/injection, schedule: Q01DX001 (ip), vehicle: saline with Tween-80) was 90 % of control.

Take `O=C(/C=C(\Cl)C(=O)NO)NO`: the T/C (dose: 11.0 mg/kg/injection, schedule: Q01DX009 (ip), vehicle: saline) is 103 % of control; the T/C (dose: 16.0 mg/kg/injection, schedule: Q01DX009 (ip), vehicle: saline) was 107 % of control; the T/C under setting [2] was 154 % of control.

Take `C[n+]1ccccc1/C=C/c1cccc([N+](=O)[O-])c1`: the T/C (dose: 5.0 mg/kg/injection, schedule: Q04DX003 (ip), vehicle: saline with Tween-80) is 95 % of control; the T/C (dose: 10.0 mg/kg/injection, schedule: Q04DX003 (ip), vehicle: saline with Tween-80) is 104 % of control; the T/C (dose: 20.0 mg/kg/injection, schedule: Q04DX003 (ip), vehicle: saline with Tween-80) was 109 % of control.

As to `O=C(CCNOCc1ccccc1)OCc1ccccc1`, the T/C was 101 % of control (dose: 12.5 mg/kg/injection, schedule: Q01DX009 (ip), vehicle: other); 100 % of control (dose: 25.0 mg/kg/injection, schedule: Q01DX009 (ip), vehicle: other); 101 % of control (dose: 50.0 mg/kg/injection, schedule: Q01DX009 (ip), vehicle: other); 89 % of control (dose: 200.0 mg/kg/injection, schedule: Q01DX009 (ip), vehicle: other).

For the molecule `CSc1cccc(NC(=O)OCCOc2ccc(Br)cc2)c1`, the T/C (dose: 12.5 mg/kg/injection, schedule: Q01DX009 (ip), vehicle: Klucel (hydroxypropylcellulose) (HPC)) is 109 % of control; the T/C (dose: 25.0 mg/kg/injection, schedule: Q01DX009 (ip), vehicle: Klucel (hydroxypropylcellulose) (HPC)) was 105 % of control; the T/C (dose: 50.0 mg/kg/injection, schedule: Q01DX009 (ip), vehicle: Klucel (hydroxypropylcellulose) (HPC)) was 102 % of control.

With `Cc1nc([N+](=O)[O-])cn1CCC#N`, the T/C is 98 % of control under setting [3], 99 % of control under setting [4] and 86 % of control under setting [9].

As for `CCCC(CC)C(C(=O)OCC)C1=NC(C)(C)CC(C)O1` (stereo not given), the T/C runs as follows: (dose: 12.5 mg/kg/injection, schedule: Q01DX001 (ip), vehicle: saline sonified) 100 % of control; (dose: 25.0 mg/kg/injection, schedule: Q01DX001 (ip), vehicle: saline sonified) 100 % of control; (dose: 50.0 mg/kg/injection, schedule: Q01DX001 (ip), vehicle: saline sonified) 100 % of control.

With `CCOc1ccc(NC(=O)C23CC4CC(CC(C4)C2)C3)cc1`, the T/C under setting [12] was 100 % of control, the T/C under setting [7] is 100 % of control and the T/C under setting [8] is 100 % of control.

As for `COC(=O)/C(=C1/OC(=O)C(c2ccccc2)=C1O)c1ccccc1`, the T/C was 100 % of control (dose: 6.25 mg/kg/injection, schedule: Q01DX009 (ip), vehicle: saline with Tween-80); 115 % of control under setting [13]; 90 % of control under setting [12]; 105 % of control under setting [14]; 109 % of control and 112 % of control under setting [7]; 95 % of control (dose: 37.5 mg/kg/injection, schedule: Q01DX009 (ip), vehicle: saline with Tween-80). Besides, the T/C under setting [8] was 100 % of control.

With `O=C(/C=C/c1ccccc1)N1CCOCC1`, the T/C runs as follows: (dose: 50.0 mg/kg/injection, schedule: Q04DX003 (ip), vehicle: saline) 95 % of control; (dose: 100.0 mg/kg/injection, schedule: Q04DX003 (ip), vehicle: saline) 95 % of control.

Consider `CCN(CC)CC(C)=C(B1OC(C)(C)C(C)(C)O1)B1OC(C)(C)C(C)(C)O1`, for which the T/C was 110 % of control (dose: 50.0 mg/kg/injection, schedule: Q01DX001 (ip), vehicle: saline); 105 % of control (dose: 100.0 mg/kg/injection, schedule: Q01DX001 (ip), vehicle: saline); 100 % of control (dose: 200.0 mg/kg/injection, schedule: Q01DX001 (ip), vehicle: saline).

Consider `CCC[CH2][Hg][Cl]`, for which the T/C reads like this: (dose: 6.25 mg/kg/injection, schedule: Q04DX003 (ip), vehicle: saline sonified) 115 % of control; under setting [13], 100 % of control; under setting [12], 109 % of control; (dose: 12.5 mg/kg/injection, schedule: Q04DX003 (ip), vehicle: saline sonified) 110 % of control; under setting [14], 150 % of control; (dose: 16.5 mg/kg/injection, schedule: Q04DX003 (ip), vehicle: saline sonified) 113 % of control. Also, the T/C is, setting by setting: (dose: 25.0 mg/kg/injection, schedule: Q04DX003 (ip), vehicle: saline sonified) 104 % of control; (dose: 37.5 mg/kg/injection, schedule: Q04DX003 (ip), vehicle: saline sonified) 118 % of control.
